Patent publication US12268702B2, “Antitumor pharmaceutical composition comprising azvudine and chemotherapeutic agent” (HENAN GENUINE BIOTECH CO., LTD., priority 2023, dated 2025)

Experiments:
Assay type in all cases: in vivo
[1] = test system: Daudi xenograft tumor model; assay: Human Burkitt's lymphoma cell Daudi subcutaneous xenograft tumor model; settings: combination 1 + 50 mg/kg; for Tumor volume (mm^3) on the 27th day: CB 17 SCID mice, QD x 4 weeks, azvudine 1 mg/kg p.o., cyclophosphamide 50 mg/kg i.p.
Method: (§1) Human Burkitt's lymphoma cells Daudi (Cat. No.: DSMZ-ACC129) were in vitro suspended and cultured in RPMI 1640 medium containing 10% fetal bovine serum, 2 mM glutamine, 100 U/mL penicillin and 100 μg/mL streptomycin, in a 37° C. and 5% CO2 incubator. When the cell saturation achieved 80%-90% and the cell number reached the requirement, the cells were collected, counted and inoculated.
0.2 mL (10×10^6) of Daudi cells (added with Matrigel at a volume ratio of 1:1) were subcutaneously inoculated on the right back of each mouse. The grouping administration was started when the average tumor volume reached about 100 mm^3.
The changes of tumor volume and tumor weight in each group after administration of test drugs for treating CB 17 SCID mice with Daudi cell subcutaneous xenograft tumor are shown in Table 8 and Table 9 respectively.

[2] = test system: LoVo xenograft tumor model; assay: LoVo human colon cancer subcutaneous xenograft tumor model; settings: 21st day of administration, azvudine 1 mpk, capecitabine 400 mpk, combination 1 + 400 mpk; for Tumor volume (mm^3): BALB/c nude mice, p.o. QD x 3 weeks
Method: Human colon cancer cells LoVo (Cat. No.: ECACC-87060101) were cultured in vitro as a monolayer in F12K medium containing 10% fetal bovine serum, 100 U/mL penicillin and 100 μg/mL streptomycin, in a 37° C. and 5% CO2 incubator. The cells were routinely digested with trypsin-EDTA and passaged twice a week. When the cell saturation reached 80%-90% and the cell number achieved the requirement, the cells were collected, counted and inoculated.
0.1 mL)(10×10^6) of LoVo cells were subcutaneously inoculated on the right back of each mouse. The grouping administration was started when the average tumor volume reached about 147 mm^3.
The tumor volume changes and the tumor weight changes in each group (on the 21st day of administration) after administration of test drugs for treating BALB/c nude mice with Lovo cell subcutaneous xenograft tumor are shown in Table 5 and Table 6 respectively.

[3] = test system: MOLT4 xenograft tumor model; assay: Human acute lymphoblastic leukemia MOLT4 cell subcutaneous xenograft tumor model
Method: as §1, with “acute lymphoblastic leukemia” for “Burkitt's lymphoma”, “MOLT4” for “Daudi”, “ECACC-85011413)” for “DSMZ-ACC129)”, “serum,” for “serum, 2 mM glutamine,”
0.2 mL (10×10^6) of MOLT4 cells (added with Matrigel at a volume ratio of 1:1) were subcutaneously inoculated on the right back of each mouse. The grouping administration was started when the average tumor volume reached about 148 mm^3.
The changes of tumor volume and tumor weight in each group after administration of test drugs for treating SCID Beige mice with MOLT4 cell subcutaneous xenograft tumor are shown in Table 10 and Table 11.

[4] = test system: OVCAR-8 human ovarian cancer model; assay: OVCAR-8 human ovarian cancer subcutaneous xenograft tumor model; settings: azvudine 1 mg/kg, paclitaxel 15 mg/kg, avastin 10 mg/kg, combinations 1 + 15 and 1 + 10 mg/kg
Method: OVCAR-8 cells were cultured in RPMI1640 medium containing 10% fetal bovine serum. OVCAR-8 cells in the exponential growth phase were collected, resuspended in PBS to an appropriate concentration and mixed with Matrigel at a ratio of 1:1. The resulting mixture was used for subcutaneous inoculation of tumor in mice.
1×10^7 OVCAR-8 cells were inoculated subcutaneously on the right side of female mice. When the average tumor volume achieved 174.25 mm^3, the mice were randomly divided into groups according to tumor size.
The experimental protocols for animal experiments in this experiment were reviewed and approved by the CrownBio IACUC committee. During the experiment, the animal experiments were performed in accordance with the requirements of AAALAC. After tumor inoculation was completed, the impact of tumor growth and treatment on normal behavior of animals was routinely monitored, specifically the activity of experimental animals, food intake and water intake, body weight gain or loss (body weight was measured twice a week), eye, hair and other abnormalities. The clinical symptoms observed during the experiment were recorded in the original data. The tumor volume was calculated according to the following formula: tumor volume (mm^3)=½×(a×b^2) (where a represents long diameter and b represents short diameter).
Relative tumor proliferation rate, T/C %, refers to the percentage value of the relative tumor volume or tumor weight of the treatment group and the control group at a certain time point, which was calculated as follows: • T/C %=TRTV/CRTV×100% (TRTV: the average RTV of the treatment group; CRTV: the average RTV of the vehicle control group; RTV=Vt/V0, where V0 is the tumor volume of the animal when grouped, and Vt is the tumor volume of the animal after treatment); • or T/C %=TTW/CTW×100% (TTW: the average tumor weight of the treatment group at the end of the experiment; CTW: the average tumor weight of the vehicle control group at the end of the experiment).
Relative tumor inhibition rate, TGI (%), was calculated according to the formula as follows: TGI %=(1−T/C)×100%. (T and C are the relative tumor volumes (RTV) or tumor weights (TW) of the treatment group and the control group at a specific time point).
To compare tumor volumes of different treatment groups on a given day, first the assumption of homogeneity of variance among all groups was tested using the Bartlett test. When the p-value of Bartlett's test was not less than 0.05, whether all group means were equal was tested using one-way ANOVA. If the p-value of the one-way ANOVA was less than 0.05, pairwise comparisons among all groups were conducted using Tukey's HSD test, or pairwise comparisons between each treatment group and control group were conducted using Dunnett's t-test. When the p-value of Bartlett's test was less than 0.05, whether the medians of all groups were equal was tested using Kruskal Wallis test. If the p-value of the Kruskal Wallis test was less than 0.05, pairwise comparisons among all groups or between each treatment group and control group were conducted using Conover test, and the corresponding p-value correction was performed according to the number of groups in the multiple test.

[5] = based on tumor volume, 27th day, azvudine 1 mg/kg, cyclophosphamide 50 mg/kg
[6] = 28th day after start of administration, azvudine 1 mg/kg
[7] = based on tumor volume, 28th day, azvudine 2 mg/kg in Table 10, cyclophosphamide 50 mg/kg, combination 1 + 50 mg/kg

## [N-]=[N+]=N[C@]1(CO)O[C@@H](n2ccc(N)nc2=O)[C@@H](F)[C@@H]1O [Azvudine, azvudine]
[1]; 27th day of administration
  Tumor volume (mm^3) on the 27th day: 909 ± 120 mm^3
[1]; 27th day of administration, listed as azvudine
  Tumor volume (mm^3) on the 27th day: 909 mm^3
[1]; 27th day of administration, azvudine 1 mg/kg, cyclophosphamide 50 mg/kg
  Tumor weight (g) (On the 27th day): 0.996 ± 0.143 g
[1]; [5]
  T/C (%): 30.64%
  TGI (%): 71.09%
[1]; based on tumor weight, 27th day, azvudine 1 mg/kg, cyclophosphamide 50 mg/kg
  T/Cweight (%): 33.38%
[2]
  Tumor volume (mm^3): 902 ± 163 mm^3
  Tumor weight: 0.937 ± 0.142 g
[2]; listed as azvudine
  Tumor volume (mm^3): 902 mm^3
[2]; based on tumor volume
  T/C (%): 62.00%
  TGI (%): 43.40%
[2]; based on tumor weight
  T/C (%): 66.37%
[3]; [6]
  T/C: 33.89
  TGI: 69.73%
  Tumor volume: 979 mm^3
[3]; 28th day of administration, SCID Beige mice, QD x 4 weeks, azvudine 2 mg/kg in Table 10, cyclophosphamide 50 mg/kg i.p., combination 1 + 50 mg/kg
  Tumor volume (mm^3) on the 28th day: 986 ± 179 mm^3
[3]; 28th day of administration, azvudine 1 mg/kg, cyclophosphamide 50 mg/kg, combination 1 + 50 mg/kg
  Tumor weight (g) (On the 28th day): 1.168 ± 0.145 g
[3]; [7]
  T/C (%): 33.55%
  TGI (%): 69.49%
[3]; based on tumor weight, 28th day, azvudine 1 mg/kg, cyclophosphamide 50 mg/kg, combination 1 + 50 mg/kg
  T/Cweight (%): 39.31%
[4]; 34th day after grouping
  T/C (%): 81.91%
  TGI (%): 18.09%
  Tumor volume (x ± S): 460.67 ± 105.37(6)
[4]; 34th day of administration
  average tumor volume: 460.67 mm^3
